Measured values from patent US9328075B2 (St. Jude Children's Research Hospital, priority 2011, dated 2016).

Assays:
[1] = molecular target: IRdRp (PB2, PB1, PA and NP from the strain A/Vietnam/1203/04 (H1N1)) (Influenza A virus, UniProt Q5EP34); experiment: cell-based; design: species or system influenza A/Vietnam/1203/04 (H1N1)
[2] = in vitro; details: human
[3] = in vitro; details: dog
[4] = tested on: A/Puerto Rico/8/34 (H1N1); experiment: microbe, parasite or virus in culture; details: Influenza A virus, H1N1, MDCK, 48 h, read-out: Growth Inhibition (%) 20 μM 48 h

`O=C(NC1CCCc2ccccc21)c1nc(-c2ccccn2)[nH]c(=O)c1O` (stereo not shown) gave an IC50 [1] of 3.6 µM, a CC50 at 72 h [2] of 2.6 µM and a CC50 at 72 h [3] of 7 µM. The inhibition at 20 µM [4] was 97%.
For `CC(C)CC(C)NC(=O)c1nc(-c2ccccn2)nc(O)c1O` (stereo not shown), the IC50 [1] was 12.9 µM, the CC50 at 72 h [2] was > 25 µM and the CC50 at 72 h [3] was > 25 µM. It also gave an inhibition at 20 µM [4] of 50%.
For `CC1CCC(NC(=O)c2nc(-c3ccccn3)[nH]c(=O)c2O)CC1` (stereo not shown), the IC50 [1] was 5.6 µM, the CC50 at 72 h [2] was < 25 µM and the CC50 at 72 h [3] was > 25 µM. For the same molecule, the inhibition at 20 µM [4] was 88%.
For `O=C(NCc1cccc2ccccc12)c1nc(-c2ccccn2)[nH]c(=O)c1O`, the IC50 [1] was 9.1 µM, the CC50 at 72 h [2] was < 25 µM and the CC50 at 72 h [3] was > 25 µM. It also gave an inhibition at 20 µM [4] of 94%.
In the case of `CCCCCC(C)NC(=O)c1nc(-c2ccccn2)nc(O)c1O` (stereo not shown), the IC50 [1] is reported as 14.1 µM, the CC50 at 72 h [2] is reported as < 25 µM and the CC50 at 72 h [3] is reported as > 25 µM. For the same molecule, the inhibition at 20 µM [4] was 88%.
In the case of `Cc1ccccc1NC(=O)c1nc(-c2ccccn2)nc(O)c1O`, the IC50 [1] is reported as 8.9 µM, the CC50 at 72 h [2] is reported as > 25 µM and the CC50 at 72 h [3] is reported as > 25 µM. The inhibition at 20 µM [4] was 94%.
With `CC1CCCCC1NC(=O)c1nc(-c2ccccn2)nc(O)c1O` (stereo not shown) the IC50 [1] was 5.5 µM, the CC50 at 72 h [2] was < 25 µM and the CC50 at 72 h [3] was 5.5 µM. It also gave an inhibition at 20 µM [4] of 97%.
With `CC(C)(C)c1cccc(NC(=O)c2nc(-c3ccccn3)nc(O)c2O)c1` the IC50 [1] was 5.9 µM, the CC50 at 72 h [2] was < 25 µM and the CC50 at 72 h [3] was > 25 µM. The inhibition at 20 µM [4] was 94%.
For `CC(C)(C)CCNC(=O)c1nc(-c2ccccn2)nc(O)c1O`, the IC50 [1] was 10.1 µM, the CC50 at 72 h [2] was < 25 µM and the CC50 at 72 h [3] was > 25 µM. The inhibition at 20 µM [4] was 88%.
In the case of `CCCCC(CC)CNC(=O)c1nc(-c2ccccn2)nc(O)c1O` (stereo not shown), the IC50 [1] is reported as 4.3 µM, the CC50 at 72 h [2] is reported as < 25 µM and the CC50 at 72 h [3] is reported as > 25 µM. The inhibition at 20 µM [4] was 94%.
With `Cc1cccc(NC(=O)c2nc(-c3ccccn3)nc(O)c2O)c1` the IC50 [1] was 27.1 µM, the CC50 at 72 h [2] was < 25 µM and the CC50 at 72 h [3] was > 25 µM. The inhibition at 20 µM [4] was 75%.
In the case of `COc1ccc(NC(=O)c2nc(-c3ccccn3)nc(O)c2O)c(C)c1`, the IC50 [1] is reported as 10 µM, the CC50 at 72 h [2] is reported as < 25 µM and the CC50 at 72 h [3] is reported as > 25 µM. For the same molecule, the inhibition at 20 µM [4] was 0%.
With `CC(CNC(=O)c1nc(-c2ccccn2)nc(O)c1O)c1ccccc1` (stereo not shown) the IC50 [1] was 20.5 µM, the CC50 at 72 h [2] was < 25 µM and the CC50 at 72 h [3] was > 25 µM. For the same molecule, the inhibition at 20 µM [4] was 50%.
